Reference: ChEMBL document CHEMBL1201862, “PubChem BioAssay data set” (2004)
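In this assay, cells in 96-well plates receive the compound at five concentrations for 48 hours. Endpoints are linearly interpolated between the surrounding concentrations. GI50 = concentration required for 50% inhibition of growth.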 Active and inactive are the calls of the source. Cut-off read from the data, not from the text of the source: active = GI50 up to about 1.1 µM and inactive = higher.

Experiments:
Assay in all cases: growth of human tumour cells (NCI), 48 h
SK-MEL-2 = system: SK-MEL-2
HL-60 = system: HL-60
TK-10 = system: TK-10
SK-MEL-28 = system: SK-MEL-28
NCI-H226 = system: NCI-H226
SK-OV-3 = system: SK-OV-3
HOP-62 = system: HOP-62
CCRF-CEM = system: CCRF-CEM
NCI-H522 = system: NCI-H522
LOX IMVI = system: LOX IMVI
U-251 = system: U-251
COLO 205 = system: COLO 205
NCI-H23 = system: NCI-H23
IGROV-1 = system: IGROV-1
M14 = system: M14
NCI-H460 = system: NCI-H460
SW-620 = system: SW-620
HCC 2998 = system: HCC 2998
OVCAR-4 = system: OVCAR-4

Compound: CC1=NC(C(=O)O)Cc2c1[nH]c1ccccc21 (stereo not given)
- GI50 (SK-MEL-2): > 100 µM (inactive)
- GI50 (HL-60): > 100 µM (inactive)
- GI50 (TK-10): > 100 µM (inactive)
- GI50 (SK-MEL-28): > 100 µM (inactive)
- GI50 (NCI-H226): > 100 µM (inactive)
- GI50 (SK-OV-3): > 100 µM (inactive)
- GI50 (HOP-62): < 0.01 µM (active)
- GI50 (CCRF-CEM): > 100 µM (inactive)
- GI50 (NCI-H522): > 100 µM (inactive)
- GI50 (LOX IMVI): > 100 µM (inactive)
- GI50 (U-251): > 100 µM (inactive)
- GI50 (COLO 205): > 100 µM (inactive)
- GI50 (NCI-H23): > 100 µM (inactive)
- GI50 (IGROV-1): > 100 µM (inactive)
- GI50 (M14): > 100 µM (inactive)
- GI50 (NCI-H460): > 100 µM (inactive)
- GI50 (SW-620): > 100 µM (inactive)

Compound: O=C1NC2(CCCCC2)C2CCCCCC12 (stereo not given)
- GI50 (HL-60): > 100 µM (inactive)
- GI50 (TK-10): > 100 µM (inactive)
- GI50 (SK-MEL-28): > 100 µM (inactive)
- GI50 (NCI-H226): > 100 µM (inactive)
- GI50 (SK-OV-3): > 100 µM (inactive)
- GI50 (HOP-62): > 100 µM (inactive)
- GI50 (LOX IMVI): > 100 µM (inactive)
- GI50 (U-251): > 100 µM (inactive)
- GI50 (NCI-H23): > 100 µM (inactive)
- GI50 (IGROV-1): > 100 µM (inactive)
- GI50 (HCC 2998): > 100 µM (inactive)
- GI50 (M14): > 100 µM (inactive)
- GI50 (NCI-H460): > 100 µM (inactive)
- GI50 (SW-620): > 100 µM (inactive)
- GI50 (OVCAR-4): > 100 µM (inactive)

Compound: O=C1CN(c2ccccc2)C(=O)C1C(=O)Nc1ccc(Cl)c(Cl)c1 (stereo not given)
- GI50 (HL-60): 0.667 µM (active)
- GI50 (TK-10): 7.05 µM (inactive)
- GI50 (SK-MEL-28): 7.43 µM (inactive)
- GI50 (SK-OV-3): 5.19 µM (inactive)
- GI50 (HOP-62): 2.22 µM (inactive)
- GI50 (CCRF-CEM): 1.84 µM (inactive)
- GI50 (NCI-H522): 2.05 µM (inactive)
- GI50 (U-251): 3.78 µM (inactive)
- GI50 (COLO 205): 8.07 µM (inactive)
- GI50 (NCI-H23): 7.31 µM (inactive)
- GI50 (IGROV-1): 2.33 µM (inactive)
- GI50 (M14): 1.79 µM (inactive)
- GI50 (SW-620): 1.21 µM (inactive)
- GI50 (OVCAR-4): 11.7 µM (inactive)

Compound: Cn1c2c(c3ccccc31)CCN(CCCCN1CCCCC1)C2=O
- GI50 (SK-MEL-2): > 100 µM (inactive)
- GI50 (HL-60): > 100 µM (inactive)
- GI50 (TK-10): > 100 µM (inactive)
- GI50 (SK-MEL-28): 16.8 µM (inactive)
- GI50 (SK-OV-3): > 100 µM (inactive)
- GI50 (HOP-62): > 100 µM (inactive)
- GI50 (CCRF-CEM): > 100 µM (inactive)
- GI50 (NCI-H522): > 100 µM (inactive)
- GI50 (U-251): > 100 µM (inactive)
- GI50 (COLO 205): > 100 µM (inactive)
- GI50 (NCI-H23): > 100 µM (inactive)
- GI50 (IGROV-1): > 100 µM (inactive)
- GI50 (M14): 99.1 µM (inactive)
- GI50 (NCI-H460): > 100 µM (inactive)
- GI50 (SW-620): > 100 µM (inactive)
- GI50 (OVCAR-4): > 100 µM (inactive)

Compound: CC1(C)C2CCC3(OCCO3)C1C(O)C2 (stereo not given)
- GI50 (SK-MEL-2): > 100 µM (inactive)
- GI50 (HL-60): > 100 µM (inactive)
- GI50 (TK-10): > 100 µM (inactive)
- GI50 (SK-MEL-28): > 100 µM (inactive)
- GI50 (NCI-H226): > 100 µM (inactive)
- GI50 (HOP-62): > 100 µM (inactive)
- GI50 (CCRF-CEM): > 100 µM (inactive)
- GI50 (NCI-H522): > 100 µM (inactive)
- GI50 (LOX IMVI): > 100 µM (inactive)
- GI50 (U-251): > 100 µM (inactive)
- GI50 (NCI-H23): > 100 µM (inactive)
- GI50 (IGROV-1): > 100 µM (inactive)
- GI50 (HCC 2998): > 100 µM (inactive)
- GI50 (M14): > 100 µM (inactive)
- GI50 (NCI-H460): > 100 µM (inactive)
- GI50 (SW-620): > 100 µM (inactive)
- GI50 (OVCAR-4): > 100 µM (inactive)

Compound: COc1cc2c(cc1OC)C(Cl)C(c1cc(OC)c(OC)c(OC)c1)=C2Cl (stereo not given)
- GI50 (SK-MEL-2): 15.5 µM (inactive)
- GI50 (HL-60): 13.6 µM (inactive)
- GI50 (TK-10): 20.3 µM (inactive)
- GI50 (SK-MEL-28): 16.4 µM (inactive)
- GI50 (NCI-H226): 18.7 µM (inactive)
- GI50 (SK-OV-3): 28.4 µM (inactive)
- GI50 (CCRF-CEM): 4.67 µM (inactive)
- GI50 (NCI-H522): 6.01 µM (inactive)
- GI50 (LOX IMVI): 13.1 µM (inactive)
- GI50 (U-251): 16.4 µM (inactive)
- GI50 (COLO 205): 17.5 µM (inactive)
- GI50 (NCI-H23): 19.3 µM (inactive)
- GI50 (IGROV-1): 24 µM (inactive)
- GI50 (M14): 17.2 µM (inactive)
- GI50 (NCI-H460): 14.4 µM (inactive)
- GI50 (SW-620): 18.8 µM (inactive)

Compound: COc1ccc(N2C(=O)C3C=CC(n4[nH]c(=O)n(Cc5ccccc5)c4=O)CC3C2=O)cc1 (stereo not given)
- GI50 (SK-MEL-2): > 100 µM (inactive)
- GI50 (HL-60): > 100 µM (inactive)
- GI50 (TK-10): > 100 µM (inactive)
- GI50 (SK-MEL-28): > 100 µM (inactive)
- GI50 (NCI-H226): > 100 µM (inactive)
- GI50 (SK-OV-3): > 100 µM (inactive)
- GI50 (HOP-62): > 100 µM (inactive)
- GI50 (CCRF-CEM): > 100 µM (inactive)
- GI50 (NCI-H522): > 100 µM (inactive)
- GI50 (LOX IMVI): > 100 µM (inactive)
- GI50 (U-251): > 100 µM (inactive)
- GI50 (COLO 205): > 100 µM (inactive)
- GI50 (NCI-H23): > 100 µM (inactive)
- GI50 (IGROV-1): > 100 µM (inactive)
- GI50 (HCC 2998): > 100 µM (inactive)
- GI50 (M14): > 100 µM (inactive)
- GI50 (NCI-H460): > 100 µM (inactive)
- GI50 (SW-620): > 100 µM (inactive)

Compound: CN(C)CCSc1nccc(-c2ccc(-c3ccnc(SCCN(C)C)n3)s2)n1
- GI50 (SK-MEL-2): 13.6 µM (inactive)
- GI50 (HL-60): 2.37 µM (inactive)
- GI50 (SK-MEL-28): 19.1 µM (inactive)
- GI50 (NCI-H226): 12.9 µM (inactive)
- GI50 (SK-OV-3): 19.1 µM (inactive)
- GI50 (HOP-62): 15.9 µM (inactive)
- GI50 (CCRF-CEM): 1.43 µM (inactive)
- GI50 (NCI-H522): 15.9 µM (inactive)
- GI50 (LOX IMVI): 3.42 µM (inactive)
- GI50 (U-251): 12.9 µM (inactive)
- GI50 (COLO 205): 9.4 µM (inactive)
- GI50 (NCI-H23): 11.2 µM (inactive)
- GI50 (IGROV-1): 12.6 µM (inactive)
- GI50 (HCC 2998): 6.08 µM (inactive)
- GI50 (NCI-H460): 3.01 µM (inactive)
- GI50 (SW-620): 3.18 µM (inactive)
- GI50 (OVCAR-4): 4.13 µM (inactive)
